Experimental data from ChEMBL document CHEMBL2380262, “Pyrrolidine analogs of GZ-793A: synthesis and evaluation as inhibitors of the vesicular monoamine transporter-2 (VMAT2)” (Bioorg Med Chem Lett, 2013).

Assays:
[1] = molecular target: T1, Synaptic vesicular amine transporter (Rattus norvegicus, UniProt Q01827); assay: Inhibition of VMAT2-mediated [3H]DA uptake in rat striatal synaptic vesicles by liquid scintillation spectroscopic analysis
[2] = molecular target: T1, Synaptic vesicular amine transporter; assay: Displacement of [3H]DTBZ from VMAT2 in Sprague-Dawley rat synaptic vesicle membranes after 30 mins by scintillation counting analysis; type: cell membranes, Membrane

T1 sequence (Q01827 whole entry): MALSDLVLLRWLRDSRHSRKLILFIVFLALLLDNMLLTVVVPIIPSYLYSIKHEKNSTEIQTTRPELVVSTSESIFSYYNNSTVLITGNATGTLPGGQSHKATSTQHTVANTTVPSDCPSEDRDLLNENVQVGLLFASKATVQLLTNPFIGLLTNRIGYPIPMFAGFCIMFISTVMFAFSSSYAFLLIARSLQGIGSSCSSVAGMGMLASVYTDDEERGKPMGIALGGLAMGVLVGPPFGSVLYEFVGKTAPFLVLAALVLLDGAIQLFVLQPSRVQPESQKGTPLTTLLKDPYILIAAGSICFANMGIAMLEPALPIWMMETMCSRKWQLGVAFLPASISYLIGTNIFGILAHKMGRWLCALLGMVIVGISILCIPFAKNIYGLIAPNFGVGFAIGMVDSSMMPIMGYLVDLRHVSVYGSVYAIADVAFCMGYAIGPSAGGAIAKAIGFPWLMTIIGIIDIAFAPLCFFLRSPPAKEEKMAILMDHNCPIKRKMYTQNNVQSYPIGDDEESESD

SMILES | Ki [1] [nM] | Ki [2] [nM]
COc1ccc(CC[C@@H]2CC[C@H](CCc3ccc(OC)c(OC)c3)N2C[C@@H](O)CO)cc1OC | 3780 | > 100000
COc1ccc(CC[C@@H]2CC[C@H](CCc3ccc(OC)cc3)N2C[C@@H](O)CO)cc1 | 49 | 3940
OC[C@H](O)CN1[C@H](CCc2ccccc2)CC[C@@H]1CCc1ccccc1 | 279 | 5910

Further lines, results first:

Ki [1] [nM] | Ki [2] [nM] | SMILES
270 | 2350 | COc1ccccc1CC[C@@H]1CC[C@H](CCc2ccccc2OC)N1C[C@@H](O)CO
269 | 8470 | OC[C@H](O)CN1[C@H](CCc2ccc3c(c2)OCO3)CC[C@@H]1CCc1ccc2c(c1)OCO2
